The text below walks through data of ChEMBL document CHEMBL3865844, “Synthesis of 3,5-dihydroxy-7,8-dimethoxy-2-(4-methoxyphenyl)benzopyran-4-one derivatives as anticancer agents” (Bioorg Med Chem Lett, 2016).

Data set [1] in a line: Anticancer activity against human ER-positive MCF7 cells measured after 48 hrs by SRB assay. The class given is functional, cell-based. As to conditions: MCF7, 48 h.
A short description of data set [2]: Anticancer activity against human DLD1 cells measured after 48 hrs by SRB assay. The class given is functional, cell-based. As to conditions: DLD-1, 48 h. A general note: In SRB staining, fixed cells bind dye roughly in proportion to their protein.
Data set [3] is described as follows: Anticancer activity against human A549 cells measured after 48 hrs by SRB assay. Conditions: A549, 48 h. Type of data set: functional, cell-based.
A short description of data set [4]: Anticancer activity against human DU145 cells measured after 48 hrs by SRB assay. Type of data set: functional, cell-based. As to conditions: DU-145, 48 h.
Data set [5] is described as follows: Anticancer activity against human FADU cells measured after 48 hrs by SRB assay. Type of data set: functional, cell-based.
The nature of data set [6]: Inhibition of tubulin depolymerization (unknown origin) measured up to 60 mins. Also on record: species or system Homo sapiens.
Data set [7] is described as follows: Cell cycle arrest in human ER-positive MCF7 cells assessed as accumulation at sub-G0 phase at 7.2 and 14.93 uM by propidium iodide staining based flow cytometry relative to vehicle control. Type of data set: functional. As to conditions: TDE = time-dependent effect. On the technique in general: In flow cytometry, cells or beads pass a laser one at a time.
Data set [8] in a line: Cell cycle arrest in human ER-positive MCF7 cells assessed as accumulation at G2M phase at 7.2 and 14.93 uM by propidium iodide staining based flow cytometry relative to vehicle control. Type of data set: functional. Conditions: TDE = time-dependent effect.
Data set [9] is described as follows: Cell cycle arrest in human ER-positive MCF7 cells assessed as decrease in S-phase cell population at 7.2 and 14.93 uM after 24 hrs by propidium iodide staining based flow cytometry relative to vehicle control. Type of data set: functional.
A further data set has as its system MCF7. Kind of data set: Induction of apoptosis in human ER-positive MCF7 cells assessed as PARP cleavage at 2.5 to 10 uM by Western blot analysis. Conditions: TDE = time-dependent effect. The class given is functional, cell-based. For orientation: In western blotting, separated proteins are transferred to a membrane and probed.
Data set [10] can be described thus: Cytotoxicity against human THP1 cells by MTT assay. Type of data set: toxicity, cell-based, THP-1.

Activity calls are given as the source filed them. No cut-off for these calls is given here.

For the compound `COc1ccc(-c2oc3c(OC)c(OC)cc(OCCCC(=O)N4CCN(C)CC4)c3c(=O)c2O)cc1`, the IC50 in [1], in data set [2], in data set [3], in [4] and in data set [5] was above 40 µM each time.

On to `COc1ccc(-c2oc3c(OC)c(OC)cc(OCCCCCC(=O)NCCc4ccccn4)c3c(=O)c2O)cc1`, for which the half-inhibitory concentration (IC50) in data set [1], in data set [2], in data set [3], in data set [4] and in data set [5] was above 40 µM each time.

For `COc1ccc(-c2oc3c(OC)c(OC)cc(OC(C)CN(C)C)c3c(=O)c2O)cc1` (stereo unspecified), the 50% inhibitory concentration (IC50) was found to be 7.2 µM in [1]; 2.56 µM in data set [2]; 6.12 µM in data set [3]; 4.38 µM in [4]; 5.41 µM in [5]. This compound also had an EC50 in data set [6] of 25.1 µM. Besides, the Activity entry (in data set [7]; in data set [8]; in the data set with MCF7) was “Tde” each time. For the same compound, the outcome in data set [9] was Active. This compound also displayed a 50% cytotoxic concentration (CC50) in [10] of 100 µM.

Regarding `CCCCN(C)C(=O)CCCOc1cc(OC)c(OC)c2oc(-c3ccc(OC)cc3)c(O)c(=O)c12`, the IC50 in [1], in data set [2], in data set [3], in data set [4] and in [5] was above 40 µM throughout. Moreover, a half-maximal effect in [6] (EC50) was put at 3.4 µM.

In the case of `COc1ccc(-c2oc3c(OC)c(OC)cc(OCCN4CCCC4)c3c(=O)c2O)cc1`, the 50% inhibitory concentration (IC50) in data set [1] came out at 14.9 µM; in [2], 17.4 µM; in [3], 11.1 µM; in [4] it was 7.07 µM; in [5], 9.79 µM. In [10], this compound showed a CC50 of 100 µM.

Regarding `COc1ccc(-c2oc3c(OC)c(OC)cc(OCCCCCC(=O)N4CCN(C)CC4)c3c(=O)c2O)cc1`, the 50% inhibitory concentration (IC50) in data set [1] is 14.1 µM; in data set [2], 13.7 µM; in data set [3], 14.8 µM; in data set [4], 13.2 µM; in data set [5], 15.8 µM. In data set [6], this compound yielded an EC50 of 5.25 µM. The midpoint of cytotoxicity in data set [10], the CC50, lay at 50 µM.

As to `COc1ccc(-c2oc3c(OC)c(OC)cc(OCCCCC(=O)NCCc4ccccn4)c3c(=O)c2O)cc1`, the IC50 in data set [1], in data set [2], in data set [3], in data set [4] and in data set [5] was above 40 µM in each case.

`CC/C(=C(\c1ccccc1)c1ccc(OCCN(C)C)cc1)c1ccccc1` [TAMOXIFEN]: the IC50 in data set [1] amounted to 18.2 µM; in data set [2], 11.1 µM; in data set [3], 17.3 µM; in data set [4] it was 18.1 µM; in data set [5], 5.39 µM.

With `COc1ccc(-c2oc3c(OC)c(OC)cc(OCCCCCC(=O)NCc4ccccn4)c3c(=O)c2O)cc1`, the 50% inhibitory concentration (IC50) in data set [1], in data set [2], in data set [3], in data set [4] and in [5] was above 40 µM in each case.

`COc1ccc(-c2oc3c(OC)c(OC)cc(OCCCC(=O)NCCc4ccccn4)c3c(=O)c2O)cc1`: the IC50 in data set [1], in data set [2], in data set [3], in data set [4] and in [5] was above 40 µM in each case.

Consider `COc1ccc(-c2oc3c(OC)c(OC)cc(OCCCC(=O)NCc4ccccn4)c3c(=O)c2O)cc1`, for which the IC50 in data set [1], in [2], in [3], in data set [4] and in [5] was above 40 µM throughout.

For the compound `CCCCCN(C)C(=O)CCCCCOc1cc(OC)c(OC)c2oc(-c3ccc(OC)cc3)c(O)c(=O)c12`, the IC50 is 34.9 µM in [1]; 19.4 µM in data set [2]; 17.2 µM in [3]; 22.5 µM in data set [4]; above 40 µM in data set [5]. This compound also had a 50% cytotoxic concentration (CC50) in data set [10] of 200 µM.

Consider `CCCCN(C)C(=O)CCCCOc1cc(OC)c(OC)c2oc(-c3ccc(OC)cc3)c(O)c(=O)c12`, for which the IC50 in [1] stood at 22.3 µM; in data set [2], 17.4 µM; in data set [3], 16.7 µM; in data set [4] it was 10.8 µM; in data set [5], 22 µM. In addition, the half-maximal cytotoxic concentration (CC50) in data set [10] was 200 µM.

In the case of `COc1ccc(-c2oc3c(OC)c(OC)cc(OCCN4CCCCC4)c3c(=O)c2O)cc1`, the IC50 in [1] is 11.9 µM; in data set [2] it was 4.56 µM; in data set [3], 10.3 µM; in data set [4], 6.55 µM; in data set [5], 9.96 µM. The compound further gave a cytotoxic concentration (CC50) in data set [10] of 100 µM.

Consider `COc1ccc(-c2oc3c(OC)c(OC)cc(OCCCCC(=O)NCc4ccccn4)c3c(=O)c2O)cc1`, for which the half-inhibitory concentration (IC50) in data set [1], in [2], in data set [3], in data set [4] and in data set [5] was above 40 µM in each case.

`CCN(CC)CCOc1cc(OC)c(OC)c2oc(-c3ccc(OC)cc3)c(O)c(=O)c12`: the half-inhibitory concentration (IC50) amounted to 25.1 µM in data set [1]; 7.81 µM in [2]; 13.8 µM in data set [3]; 11.3 µM in data set [4]; 12.8 µM in data set [5]. Besides, the half-maximal cytotoxic concentration (CC50) in [10] was found to be 200 µM.

`COc1ccc(-c2oc3c(OC)c(OC)cc(OCCN(C)C)c3c(=O)c2O)cc1`: the IC50 in data set [1] was determined as 12.9 µM; in data set [2], 4.44 µM; in data set [3] it was 7.17 µM; in data set [4] it was 6.03 µM; in data set [5] it was 10.9 µM. Besides, in data set [10], the CC50 is 200 µM.

In turn, `CC(=O)O[C@H]1C(=O)[C@@]2(C)[C@H]([C@H](OC(=O)c3ccccc3)[C@]3(O)C[C@H](OC(=O)[C@H](O)[C@@H](NC(=O)c4ccccc4)c4ccccc4)C(C)=C1C3(C)C)[C@]1(OC(C)=O)CO[C@@H]1C[C@@H]2O` [PACLITAXEL] came in with an EC50 in [6] of 0.97 µM.

Consider `COc1ccc(-c2oc3c(OC)c(OC)cc(OCCCCC(=O)N4CCN(C)CC4)c3c(=O)c2O)cc1`, for which the concentration for half-maximal inhibition (IC50) in data set [1], in [2], in data set [3], in data set [4] and in [5] was above 40 µM in each case.

As a reminder, the IC50 is the concentration that inhibits the measured activity by half. Read a low IC50 as inhibition by little substance. Usually EC50 stands for the concentration at which the effect is half-maximal. Read a high EC50 as a less potent agent. As usually defined, the CC50 is the concentration at which the toxic effect on the cells reaches its halfway point. Low readings indicate harm at low concentration, high ones better tolerance by the cells.
